The values that follow come from US20240374764A1, “COMBINATION RADIOTHERAPY” (Telix Pharmaceuticals (Innovations) Pty Ltd., priority 2021, published 2024).

In data set [1] the test system is SK-RC-52 xenografts. The data set is described as follows: In vivo efficacy in SK-RC-52 metastatic renal cell carcinoma xenograft model. The arrangement: species or system Female BALB/c nude mice. The settings on record: number of mice (% of group, n=4) at conclusion of study; 177Lu antibody 6 MBq single i.v. dose day 0; M3814 50 mg/kg oral daily where combined. From the text: Tumour growth curves were monitored in mice for up to 6 months or ethical limits.

Data set [2] concerns SK-RC-52 xenografts. The note with it: mouse, in vivo.
Protocol: Female BALB/c nude mice with established SK-RC-52 xenografts (approx. 100 mm^3) were used for this study. Mice were split into one of the following 3 groups: • Vehicle control (oral) n=4; • ^177Lu-anti-CAIX antibody only (DOTA-GmAb, as described herein; 162 μCi/6 MBq) n=4; • 50 mg/kg M3814 DNA-PKi orally dosed and ^177Lu-anti-CAIX antibody (162 μCi/6 MBq) n=4.
Animals were treated as follows: • Day −14: injection of 60 female mice with RK-RC-52 metastatic RCC cells in matrigel; • Day 0: ^177Lu-anti-CAIX antibody i.v. administration, single dose once only • Day 1-7: daily oral dosing of vehicle/M3814 @ 50 mg/kg.
SPECT/MRI imaging was conducted at days 3 and 6 to determine biodistribution.
The conditions of data set [3]: previous clinical studies, cited from earlier work.
Data set [4] addresses DNA-PK (Homo sapiens, UniProt P78527). The settings on record: as demonstrated by crystallographic and enzyme kinetics studies; cited from earlier work.

“^177Lu-anti-CAIX antibody: 177Lu-labelled DOTA conjugate of the anti-CAIX antibody GmAb (girentuximab)”: in data set [1], the “Complete Remission” value was 1 (25%) and the “Progressive Disease” value was 3 (75%). In data set [2], the “SPECT imaging: delivery of radiation to the tumour” value was “specifically delivers cytotoxic radiation to the tumour over a prolonged period”.
In the case of “^177Lu-girentuximab: chimeric monoclonal antibody girentuximab (cG250, TLX250) specific for CAIX, radiolabelled with lutetium-177 via a DOTA linker”, the MTD in data set [3] (single agent) is recorded as 2405 MBq/m^2. For the same molecule, in data set [3], the “tolerability of follow on dosing at 75% of the previous dose” value is on record as “well tolerated”.
Regarding `COc1ccc([C@@H](O)c2cc(-c3ncnc4cc(N5CCOCC5)ccc34)c(F)cc2Cl)nn1` [M3814, (S)-[2-chloro-4-fluoro-5-(7-morpholin-4-yl-quinazolin-4-yl)-phenyl]-(6-methoxypyridazin-3-yl)-methanol], the “inhibition of DNA-PK (mode, potency, selectivity)” value in data set [4] is “potent and selective ATP-competitive inhibitor of DNA-PK”.
